Laboratory results: ChEMBL document CHEMBL2331106, “Discovery of 5-phenoxy-1,3-dimethyl-1H-pyrazole-4-carboxamides as potent agonists of TGR5 via sequential combinatorial libraries” (Bioorg Med Chem Lett, 2013)

What was measured:
[1] = Distribution coefficient, log D of the compound by shake flask method; type: physicochemical; conditions: octanol/water
[2] = target: T1, G-protein coupled bile acid receptor 1 (Homo sapiens, UniProt Q8TDU6); assay: Agonist activity at doxycycline-promoter regulated overexpressed human TGR5 receptor in CHO cells assessed as elevation of cAMP level by induced-cAMP assay; type: functional, cell-based
T1 sequence (Q8TDU6 whole entry): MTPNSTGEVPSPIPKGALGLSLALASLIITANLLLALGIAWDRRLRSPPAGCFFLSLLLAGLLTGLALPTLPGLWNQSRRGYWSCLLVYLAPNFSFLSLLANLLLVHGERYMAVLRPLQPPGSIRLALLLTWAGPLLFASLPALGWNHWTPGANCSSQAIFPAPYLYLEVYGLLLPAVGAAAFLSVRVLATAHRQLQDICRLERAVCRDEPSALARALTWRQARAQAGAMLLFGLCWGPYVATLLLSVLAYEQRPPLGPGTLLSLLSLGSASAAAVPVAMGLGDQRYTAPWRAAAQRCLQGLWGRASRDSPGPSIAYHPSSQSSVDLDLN

[3] = target: T1, G-protein coupled bile acid receptor 1; assay: Agonist activity at human TGR5 receptor in CHO cells assessed as elevation of cAMP level by uninduced cAMP detection method in absence of doxycycline; type: functional, cell-based
Homo sapiens = organism: Homo sapiens; assay: Ex vivo activation of TGR5 in human PBMC assessed as elevation of cAMP level by cAMP assay
[4] = Intrinsic clearance in human liver microsomes; type: ADME, Microsome; conditions: read-out: CLH

For `Cc1nn(C)c(Oc2ccccc2)c1C(=O)N1CCCCC1c1cccnc1` (centres undefined), the logD [1] was 2.4, the EC50 [2] was 920 nM and the EC50 [3] was greater than 10000 nM.

For `Cc1nn(C)c(Oc2cccnc2)c1C(=O)N1CCCCC1c1cccnc1` (centres undefined), the logD [1] was 1.4, the EC50 [2] was greater than 10000 nM and the EC50 [3] was greater than 10000 nM.

Compound `Cc1nn(C)c(Oc2cccc(Cl)c2Cl)c1C(=O)N1CCCC[C@@H]1c1cccnc1` has an EC50 (Homo sapiens) of 379 nM.

With `Cc1ccc(N(C)C(=O)c2c(-c3ccccc3Cl)noc2C)cc1Cl` the microsomal CLint [4] was greater than 320 µL/min/mg and the logD [1] was 3.6.
